In patent publication US9125913B2, “Bcl-2-selective apoptosis-inducing agents for the treatment of cancer and immune diseases” (AbbVie Inc., priority 2008, dated 2015):

Columns and labels:
[1] = tested on: GST-Bcl-2; assay: TR-FRET binding assay, Bcl-2; conditions: TR-FRET Ki values
Procedure, shortened: (§1)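 Compounds serially diluted in DMSO from 50 μM (2× starting concentration, 10% DMSO), mixed with GST-tagged protein, F-Bak peptide probe and Tb-labeled antibody, incubated 3 h at room temperature.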

[2] = target: GST-Bcl-2 (Homo sapiens (Human), UniProt P10415); assay: TR-FRET binding assay, Bcl-2; conditions: TR-FRET; GST-Bcl-2 1 nM, F-Bak probe 100 nM, Tb-anti-GST 1 nM
Procedure, shortened: as §1

[3] = target: GST-Bcl-XL (Homo sapiens (Human), UniProt Q07817); assay: TR-FRET binding assay, Bcl-XL; conditions: GST-Bcl-XL 1 nM, F-Bak probe 100 nM, Tb-anti-GST 1 nM
Method: Tb-anti-GST antibody was purchased from Invitrogen (Catalog No. PV4216).
Representative compounds were serially diluted in dimethyl sulfoxide (DMSO) starting at 50 μM (2× starting concentration; 10% DMSO) and 10 μL were transferred into a 384-well plate.
The samples were then mixed on a shaker for 1 minute and incubated for an additional 3 hours at room temperature. For each assay, the probe/antibody and protein/probe/antibody were included on each assay plate as negative and positive controls, respectively. Fluorescence was measured on the Envision (Perkin Elmer) using a 340/35 nm excitation filter and 520/525 (F-Bak peptide) and 495/510 nm (Tb-labeled anti-Histidine antibody) emission filters.
The inhibition constant (Ki) is the dissociation constant of an enzyme-inhibitor complex or a protein/small molecule complex, wherein the small molecule is inhibiting binding of one protein to another protein or peptide. […] Inhibition constants were determined using Wang's equation (Wang Z-X., An Exact Mathematical Expression For Describing Competitive Binding Of Two Different Ligands To A Protein Molecule. FEBS Lett. 1995, 360:111-4).

[4] = tested on: FL5.12/Bcl-2 cells; assay: FL5.12/Bcl-2 cell viability assay; format: cell-based, murine; conditions: for Selectivity Ratio (Platelet EC50/FL5.12/Bcl-2 EC50): ratio of canine platelet EC50 to FL5.12/Bcl-2 EC50
Procedure, shortened: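 Viability measured by CellTitre Glo after FL5.12/Bcl-2 murine cells, starved of IL-3 for 48 hrs, were treated with compounds for another 24 hrs. Killing reflects inhibition of Bcl-2 sequestration of Bim and Puma.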

[5] = tested on: isolated canine platelets; assay: Platelet cell viability assay; format: cell-based; conditions: Canis lupus familiaris, 5 h; isolated canine platelets (platelet-rich plasma), five hours at 37° C., Cell Titer Glo
Method: After the incubation, platelets were equilibrated to room temperature for 20 minutes and then an equal volume of Cell Titer Glo reagent (Promega Corporation) was added. Samples were mixed for two minutes and then allowed to equilibrate for an additional 10 minutes at room temperature. The luminescence generated from the samples was quantitated using an LJL Analyst plate reader.
The effect of compounds on platelet survival can be directly evaluated ex vivo by examining the viability of isolated canine platelets in the presence of various concentrations of compound.

Chain of GST-Bcl-XL (Q07817 whole entry): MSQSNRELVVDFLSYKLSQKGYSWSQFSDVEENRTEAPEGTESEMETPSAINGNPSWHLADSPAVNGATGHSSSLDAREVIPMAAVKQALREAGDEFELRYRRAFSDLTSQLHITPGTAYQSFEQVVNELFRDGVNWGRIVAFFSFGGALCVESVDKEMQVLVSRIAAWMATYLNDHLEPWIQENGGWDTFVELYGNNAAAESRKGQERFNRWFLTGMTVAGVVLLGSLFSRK
Chain of GST-Bcl-2 (Homo sapiens (Human), UniProt P10415) (P10415 whole entry, looked up): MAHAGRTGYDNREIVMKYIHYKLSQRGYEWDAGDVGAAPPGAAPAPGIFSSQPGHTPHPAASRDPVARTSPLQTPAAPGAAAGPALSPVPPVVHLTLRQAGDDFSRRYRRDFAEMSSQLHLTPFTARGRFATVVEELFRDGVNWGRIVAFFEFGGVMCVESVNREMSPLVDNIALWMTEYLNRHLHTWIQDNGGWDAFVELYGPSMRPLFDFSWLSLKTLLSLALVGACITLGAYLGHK

CN1CCC(Nc2ccc(S(=O)(=O)NC(=O)c3ccc(N4CCN(CC5=C(c6ccc(Cl)cc6)CC(C)(C)CC5)CC4)cc3Oc3ccc4[nH]ccc4c3)cc2S(=O)(=O)C(F)(F)F)CC1 [Example 76, 4-(4-{[2-(4-chlorophenyl)-4,4-dimethylcyclohex-1-en-1-yl]methyl}piperazin-1-yl)-2-(1H-indol-5-yloxy)-N-({4-[(1-methylpiperidin-4-yl)amino]-3-[(trifluoromethyl)sulfonyl]phenyl}sulfonyl)benzamide]
Binding selectivity ratio (Bcl-XL Ki/Bcl-2 Ki) [1]: 64.5 | Ki [2]: 0.05 nM | Ki [3]: 10 µM | Selectivity Ratio (Platelet EC50/FL5.12/Bcl-2 EC50) [4]: 221

CN1CCC(Nc2ccc(S(=O)(=O)NC(=O)c3ccc(N4CCN(CC5=C(c6ccc(Cl)cc6)CCC5)CC4)cc3Oc3cccc4[nH]ccc34)cc2[N+](=O)[O-])CC1 [Example 148, 4-(4-{[2-(4-chlorophenyl)cyclopent-1-en-1-yl]methyl}piperazin-1-yl)-2-(1H-indol-4-yloxy)-N-({4-[(1-methylpiperidin-4-yl)amino]-3-nitrophenyl}sulfonyl)benzamide]
Binding selectivity ratio (Bcl-XL Ki/Bcl-2 Ki) [1]: >228.4 | EC50 ([4]; Mus musculus, FL5.12/Bcl-2 cells, IL-3 withdrawal, 24 hrs treatment, CellTitre Glo): 0.07 µM | Selectivity Ratio (Platelet EC50/FL5.12/Bcl-2 EC50) [4]: 278 | EC50 [5]: 120 µM
